From ChEMBL document CHEMBL5463723, “Data for DCP probe BIBO3304” (2023)

Legend:
[1] = molecular target: 5-hydroxytryptamine receptor 3A (Homo sapiens) (UniProt P46098); test: 5-HT3 Eurofins-Cerep binding assay; parameters: ligand concentration 0.5 nM; conditions: Compound concentration 10.0 uM
[2] = molecular target: Cysteinyl leukotriene receptor 1 (Cavia porcellus) (UniProt Q2NNR5); test: Activity against LTD4/GP in the Eurofins Panlabs screen (BI) by Radioactive Assay; conditions: Compound concentration 10.0 uM
[3] = molecular target: Gamma-aminobutyric acid receptor subunit alpha-1 (Rattus norvegicus) (UniProt P62813); test: Activity against GABAACL+ in the Eurofins Panlabs screen (BI) by Radioactive Assay; conditions: Compound concentration 10.0 uM
Chain of Gamma-aminobutyric acid receptor subunit alpha-1 (Rattus norvegicus) (P62813 whole entry): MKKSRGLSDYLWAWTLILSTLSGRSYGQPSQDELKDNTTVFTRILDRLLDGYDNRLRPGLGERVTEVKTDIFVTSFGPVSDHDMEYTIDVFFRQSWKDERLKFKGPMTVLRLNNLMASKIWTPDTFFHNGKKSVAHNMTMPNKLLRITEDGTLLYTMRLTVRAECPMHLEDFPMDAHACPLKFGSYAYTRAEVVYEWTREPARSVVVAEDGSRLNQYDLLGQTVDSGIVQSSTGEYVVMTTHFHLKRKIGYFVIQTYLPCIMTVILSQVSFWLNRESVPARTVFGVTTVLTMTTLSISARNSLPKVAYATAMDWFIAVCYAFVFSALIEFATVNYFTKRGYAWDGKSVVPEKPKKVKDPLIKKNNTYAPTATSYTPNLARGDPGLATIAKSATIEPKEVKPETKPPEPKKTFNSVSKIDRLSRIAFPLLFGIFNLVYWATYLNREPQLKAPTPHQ

[4] = molecular target: 5-hydroxytryptamine receptor 2A (Homo sapiens) (UniProt P28223); test: Agonist activity in the Eurofins Cerep SafetyScreen44 (BI) against 5HT2AH_AGON by Scintillation counting (Cerep_471); conditions: Compound concentration 10.0 uM
[5] = molecular target: Nitric oxide synthase, inducible (Mus musculus) (UniProt P29477); test: Activity against INOS in the Eurofins Panlabs screen (BI) by absorption of electromagnetic radiation; conditions: Compound concentration 10.0 uM
[6] = molecular target: L-type calcium channel (dihydropyridine site), Cav1.2 alpha-1C (Rattus norvegicus, UniProt P22002); test: Activity against CA+/DHPSI/RA in the Eurofins Panlabs screen (BI) by Radioactive Assay; conditions: compound concentration 10 uM, read-out: % Ctrl
Chain of L-type calcium channel (dihydropyridine site), Cav1.2 alpha-1C (P22002 whole entry): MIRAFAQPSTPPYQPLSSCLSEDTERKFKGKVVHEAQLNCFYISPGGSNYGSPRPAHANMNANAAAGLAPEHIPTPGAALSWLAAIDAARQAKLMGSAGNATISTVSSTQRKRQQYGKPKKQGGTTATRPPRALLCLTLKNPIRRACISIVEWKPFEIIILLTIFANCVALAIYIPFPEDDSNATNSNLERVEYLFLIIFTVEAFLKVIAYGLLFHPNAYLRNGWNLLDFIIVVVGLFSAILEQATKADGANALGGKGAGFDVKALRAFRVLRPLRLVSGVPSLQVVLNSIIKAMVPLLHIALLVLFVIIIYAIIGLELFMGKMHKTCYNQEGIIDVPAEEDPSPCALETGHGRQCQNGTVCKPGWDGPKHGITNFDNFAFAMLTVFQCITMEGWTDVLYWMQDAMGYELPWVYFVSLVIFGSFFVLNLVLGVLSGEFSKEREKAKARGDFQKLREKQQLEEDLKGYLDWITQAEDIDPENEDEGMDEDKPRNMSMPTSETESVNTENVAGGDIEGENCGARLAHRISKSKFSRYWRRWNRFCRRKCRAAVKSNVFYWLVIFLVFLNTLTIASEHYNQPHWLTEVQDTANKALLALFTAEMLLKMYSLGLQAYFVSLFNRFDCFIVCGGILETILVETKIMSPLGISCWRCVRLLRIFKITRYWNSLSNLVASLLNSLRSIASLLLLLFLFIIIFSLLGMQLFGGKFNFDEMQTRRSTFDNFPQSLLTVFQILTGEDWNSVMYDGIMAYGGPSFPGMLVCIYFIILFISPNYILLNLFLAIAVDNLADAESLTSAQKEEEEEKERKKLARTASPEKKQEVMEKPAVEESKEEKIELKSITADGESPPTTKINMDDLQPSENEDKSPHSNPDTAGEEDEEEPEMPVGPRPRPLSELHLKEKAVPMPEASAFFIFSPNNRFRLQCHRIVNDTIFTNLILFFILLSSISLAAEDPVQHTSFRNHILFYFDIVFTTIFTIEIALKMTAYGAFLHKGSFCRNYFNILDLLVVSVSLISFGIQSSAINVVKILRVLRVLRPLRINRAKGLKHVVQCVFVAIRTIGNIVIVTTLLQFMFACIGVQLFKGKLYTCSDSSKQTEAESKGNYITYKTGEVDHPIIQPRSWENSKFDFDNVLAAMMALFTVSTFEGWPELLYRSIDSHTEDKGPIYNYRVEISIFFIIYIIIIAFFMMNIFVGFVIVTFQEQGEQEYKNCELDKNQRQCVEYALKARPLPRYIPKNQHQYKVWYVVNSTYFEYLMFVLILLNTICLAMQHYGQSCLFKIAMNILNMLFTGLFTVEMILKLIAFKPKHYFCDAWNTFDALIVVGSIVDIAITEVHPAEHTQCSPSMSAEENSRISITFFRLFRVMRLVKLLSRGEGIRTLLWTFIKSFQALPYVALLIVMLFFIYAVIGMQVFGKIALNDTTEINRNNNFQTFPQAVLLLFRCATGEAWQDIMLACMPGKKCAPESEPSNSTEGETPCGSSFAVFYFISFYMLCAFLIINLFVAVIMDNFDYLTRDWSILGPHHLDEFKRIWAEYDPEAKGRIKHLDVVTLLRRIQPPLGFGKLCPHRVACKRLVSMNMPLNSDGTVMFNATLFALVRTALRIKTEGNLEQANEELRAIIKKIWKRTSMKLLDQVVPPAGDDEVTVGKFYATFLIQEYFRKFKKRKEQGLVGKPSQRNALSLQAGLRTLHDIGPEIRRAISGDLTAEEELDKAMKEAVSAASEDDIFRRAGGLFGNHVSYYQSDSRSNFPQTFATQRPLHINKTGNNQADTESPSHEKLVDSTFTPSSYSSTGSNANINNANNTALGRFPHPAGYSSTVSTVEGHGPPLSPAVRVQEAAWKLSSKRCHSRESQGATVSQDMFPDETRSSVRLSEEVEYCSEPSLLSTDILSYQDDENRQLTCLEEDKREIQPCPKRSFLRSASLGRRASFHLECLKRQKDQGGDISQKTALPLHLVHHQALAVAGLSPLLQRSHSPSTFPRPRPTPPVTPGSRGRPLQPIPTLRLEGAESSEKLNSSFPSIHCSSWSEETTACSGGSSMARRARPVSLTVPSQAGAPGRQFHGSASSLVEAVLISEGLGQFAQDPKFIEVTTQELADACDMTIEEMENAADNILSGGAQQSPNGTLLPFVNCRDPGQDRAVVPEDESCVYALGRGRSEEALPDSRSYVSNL

[7] = molecular target: Substance-P receptor (Cavia porcellus) (UniProt P30547); test: Activity against NK1/GP in the Eurofins Panlabs screen (BI) by Radioactive Assay; conditions: Compound concentration 10.0 uM
[8] = molecular target: Nitric oxide synthase 3 (Rattus norvegicus) (UniProt Q62600); test: Inhibitor of CNOS in the Eurofins Panlabs screen (BI) by Radioactive Assay; conditions: Compound concentration 10.0 uM
[9] = molecular target: Galanin receptor type 1 (Rattus norvegicus) (UniProt Q62805); test: Activity against GALANIN/R in the Eurofins Panlabs screen (BI) by Radioactive Assay; conditions: Compound concentration 10.0 uM
[10] = molecular target: Progesterone receptor (Bos taurus) (UniProt Q690N0); test: Activity against PROGEST/BO in the Eurofins Panlabs screen (BI) by Radioactive Assay; conditions: Compound concentration 10.0 uM
[11] = molecular target: Adenosine receptor A2a (Homo sapiens) (UniProt P29274); test: A2A Eurofins-Cerep binding assay; parameters: ligand concentration 6 nM; conditions: Compound concentration 10.0 uM
[12] = molecular target: 5-hydroxytryptamine receptor 1A (Homo sapiens) (UniProt P08908); test: 5-HT1A Eurofins-Cerep binding assay; parameters: ligand concentration 0.5 nM; conditions: Compound concentration 10.0 uM
[13] = molecular target: Leukotriene C4 synthase (Cavia porcellus) (UniProt A6XA80); test: Inhibitor of LTC4SYN in the Eurofins Panlabs screen (BI) by Radioactive Assay; conditions: Compound concentration […] uM
Chain of Leukotriene C4 synthase (Cavia porcellus) (A6XA80 whole entry): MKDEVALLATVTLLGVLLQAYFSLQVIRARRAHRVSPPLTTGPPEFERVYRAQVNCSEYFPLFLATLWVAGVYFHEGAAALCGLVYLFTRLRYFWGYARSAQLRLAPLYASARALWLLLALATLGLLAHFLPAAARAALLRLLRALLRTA

[14] = molecular target: Sodium-dependent dopamine transporter (Homo sapiens) (UniProt Q01959); test: dopamine transporter Eurofins-Cerep binding assay; conditions: Compound concentration 10.0 uM
[15] = molecular target: Voltage-dependent N-type calcium channel subunit alpha-1B (Rattus norvegicus) (UniProt Q02294); test: Activity against CA+/N/RA in the Eurofins Panlabs screen (BI) by Radioactive Assay; conditions: Compound concentration 10.0 uM
[16] = molecular target: Estrogen receptor (Bos taurus) (UniProt P49884); test: Activity against ESTROGEN/BO in the Eurofins Panlabs screen (BI) by Radioactive Assay; conditions: Compound concentration 10.0 uM
[17] = molecular target: Neuropeptide Y receptor type 2 (Oryctolagus cuniculus) (UniProt G1TSD5); test: Activity against Y2/RB in the Eurofins Panlabs screen (BI) by Radioactive Assay; conditions: Compound concentration 10.0 uM
[18] = molecular target: Beta-1 adrenergic receptor (Homo sapiens) (UniProt P08588); test: beta 1 Eurofins-Cerep binding assay; parameters: ligand concentration 0.3 nM; conditions: Compound concentration 10.0 uM
[19] = molecular target: Alpha-2A adrenergic receptor (Homo sapiens) (UniProt P08913); test: Inhibitor of ALPHA2A/HU in the Eurofins Cerep SafetyScreen44 (BI) by Radioactive Assay (Cerep_13); conditions: Compound concentration 10.0 uM
[20] = molecular target: Glucocorticoid receptor (Homo sapiens) (UniProt P04150); test: GR Eurofins-Cerep binding assay; conditions: Compound concentration 10.0 uM
[21] = molecular target: Alpha-2A adrenergic receptor (Oryctolagus cuniculus) (UniProt Q5ZQK3); test: Activity against ALPHA2A/RB in the Eurofins Panlabs screen (BI) by Radioactive Assay; conditions: Compound concentration 10.0 uM
[22] = molecular target: Glutamate receptor ionotropic, NMDA 2A (Rattus norvegicus) (UniProt Q00959); test: Activity against NMDAPHSI/R in the Eurofins Panlabs screen (BI) by Radioactive Assay; conditions: Compound concentration 10.0 uM
[23] = molecular target: D(1A) dopamine receptor (Rattus norvegicus) (UniProt P18901); test: Activity against D1/R in the Eurofins Panlabs screen (BI) by Radioactive Assay; conditions: Compound concentration 10.0 uM
[24] = molecular target: Insulin receptor (Rattus norvegicus) (UniProt P15127); test: Activity against INSULIN/R in the Eurofins Panlabs screen (BI) by Radioactive Assay; conditions: Compound concentration 10.0 uM
Chain of Insulin receptor (Rattus norvegicus) (P15127 27-759 limits assumed): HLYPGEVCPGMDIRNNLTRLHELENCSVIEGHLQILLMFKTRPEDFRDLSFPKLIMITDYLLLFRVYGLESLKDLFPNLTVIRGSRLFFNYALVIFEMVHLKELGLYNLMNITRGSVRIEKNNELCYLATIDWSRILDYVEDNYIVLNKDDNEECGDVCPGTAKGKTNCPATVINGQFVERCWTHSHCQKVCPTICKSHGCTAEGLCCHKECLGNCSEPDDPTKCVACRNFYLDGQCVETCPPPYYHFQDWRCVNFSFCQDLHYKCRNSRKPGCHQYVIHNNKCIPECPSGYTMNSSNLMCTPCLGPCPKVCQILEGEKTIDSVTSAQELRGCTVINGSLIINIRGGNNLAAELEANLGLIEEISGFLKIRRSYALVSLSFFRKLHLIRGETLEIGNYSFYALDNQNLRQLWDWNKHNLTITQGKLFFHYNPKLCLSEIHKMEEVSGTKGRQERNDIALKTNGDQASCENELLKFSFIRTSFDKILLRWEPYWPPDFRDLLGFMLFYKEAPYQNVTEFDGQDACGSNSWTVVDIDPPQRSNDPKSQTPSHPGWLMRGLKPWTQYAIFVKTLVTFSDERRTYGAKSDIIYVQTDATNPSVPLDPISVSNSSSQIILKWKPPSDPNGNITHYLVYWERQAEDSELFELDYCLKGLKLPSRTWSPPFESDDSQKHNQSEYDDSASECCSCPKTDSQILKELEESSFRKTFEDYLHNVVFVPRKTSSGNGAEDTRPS
Chain of Insulin receptor (Rattus norvegicus) (P15127 764-1383 limits assumed): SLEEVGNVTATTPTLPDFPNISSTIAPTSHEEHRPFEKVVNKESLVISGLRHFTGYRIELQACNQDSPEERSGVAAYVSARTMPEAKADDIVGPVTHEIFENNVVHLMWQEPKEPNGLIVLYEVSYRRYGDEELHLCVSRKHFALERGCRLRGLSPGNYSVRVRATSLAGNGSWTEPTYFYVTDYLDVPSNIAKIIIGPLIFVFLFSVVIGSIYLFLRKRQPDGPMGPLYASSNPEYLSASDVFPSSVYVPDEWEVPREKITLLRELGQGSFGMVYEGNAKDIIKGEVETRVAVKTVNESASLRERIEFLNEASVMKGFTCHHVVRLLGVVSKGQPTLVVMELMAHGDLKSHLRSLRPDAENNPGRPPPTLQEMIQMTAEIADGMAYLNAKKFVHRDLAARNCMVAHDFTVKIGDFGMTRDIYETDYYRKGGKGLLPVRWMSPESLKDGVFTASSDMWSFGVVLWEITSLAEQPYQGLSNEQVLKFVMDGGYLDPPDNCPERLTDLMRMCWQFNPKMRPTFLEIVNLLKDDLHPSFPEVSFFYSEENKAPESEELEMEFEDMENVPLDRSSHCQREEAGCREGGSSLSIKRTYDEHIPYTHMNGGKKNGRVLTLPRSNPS

[25] = molecular target: Type-1 angiotensin II receptor (Oryctolagus cuniculus) (UniProt P34976); test: Activity against ATII/RB in the Eurofins Panlabs screen (BI) by Radioactive Assay; conditions: Compound concentration 10.0 uM
[26] = molecular target: D(2) dopamine receptor (Rattus norvegicus) (UniProt P61169); test: Activity against D2/RAC/R in the Eurofins Panlabs screen (BI); conditions: Compound concentration 10.0 uM
[27] = molecular target: Thyrotropin-releasing hormone receptor (Rattus norvegicus) (UniProt Q01717); test: Activity against TRH/R in the Eurofins Panlabs screen (BI) by Radioactive Assay; conditions: Compound concentration 10.0 uM
Chain of Thyrotropin-releasing hormone receptor (Rattus norvegicus) (Q01717 whole entry): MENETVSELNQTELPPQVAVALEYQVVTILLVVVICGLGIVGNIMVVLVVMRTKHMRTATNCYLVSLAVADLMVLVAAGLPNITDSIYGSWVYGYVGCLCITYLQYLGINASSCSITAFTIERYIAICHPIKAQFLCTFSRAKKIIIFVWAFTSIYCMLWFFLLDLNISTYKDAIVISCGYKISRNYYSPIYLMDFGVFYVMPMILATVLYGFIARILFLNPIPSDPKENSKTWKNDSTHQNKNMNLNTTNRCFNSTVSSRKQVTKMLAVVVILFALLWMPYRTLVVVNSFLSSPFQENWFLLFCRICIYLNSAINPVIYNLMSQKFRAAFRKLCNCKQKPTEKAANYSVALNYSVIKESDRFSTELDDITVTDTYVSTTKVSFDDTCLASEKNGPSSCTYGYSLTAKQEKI

[28] = molecular target: Glutamate receptor 1 (Rattus norvegicus) (UniProt P19490); test: Activity against AMPA/RA in the Eurofins Panlabs screen (BI); conditions: Compound concentration 10.0 uM
[29] = molecular target: Interleukin-6 receptor subunit alpha (Homo sapiens) (UniProt P08887); test: Activity against IL-6/H in the Eurofins Panlabs screen (BI) by SPA - blue shifted; conditions: Compound concentration 10.0 uM
[30] = molecular target: Calpain-1 catalytic subunit (Homo sapiens) (UniProt P07384); test: Inhibitor of CALPAIN in the Eurofins Panlabs screen (BI) by FI - fluorescence intensity; conditions: Compound concentration 10.0 uM
hERG (KCNH2) = hERG (KCNH2) (Homo sapiens, UniProt Q12809); test: Inhibitor of HERG_DOFETILIDE in the Eurofins Cerep SafetyScreen44 (BI) by Scintillation counting (Cerep_4094); parameters: scale not given: the % may be the effect or the level left; conditions: probe [3H] dofetilide, compound concentration 10 uM, read-out: % Ctrl
[31] = molecular target: Histamine H2 receptor (Homo sapiens) (UniProt P25021); test: H2 Eurofins-Cerep binding assay; parameters: ligand concentration 0.075 nM; conditions: Compound concentration 10.0 uM
[32] = molecular target: Beta-2 adrenergic receptor (Homo sapiens) (UniProt P07550); test: beta 2 Eurofins-Cerep binding assay; conditions: Compound concentration 10.0 uM
Chain of Beta-2 adrenergic receptor (Homo sapiens) (P07550 whole entry, looked up): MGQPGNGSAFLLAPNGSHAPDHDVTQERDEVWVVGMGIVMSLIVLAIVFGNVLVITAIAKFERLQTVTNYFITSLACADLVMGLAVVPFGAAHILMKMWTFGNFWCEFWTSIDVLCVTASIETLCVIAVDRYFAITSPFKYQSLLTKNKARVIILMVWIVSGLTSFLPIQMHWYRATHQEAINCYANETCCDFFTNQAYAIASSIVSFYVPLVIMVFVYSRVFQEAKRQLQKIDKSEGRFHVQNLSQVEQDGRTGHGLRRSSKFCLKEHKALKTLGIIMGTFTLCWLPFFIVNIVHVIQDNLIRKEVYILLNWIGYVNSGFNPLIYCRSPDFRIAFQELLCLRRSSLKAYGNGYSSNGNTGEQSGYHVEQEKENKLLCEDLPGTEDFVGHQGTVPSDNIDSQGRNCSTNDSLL

[33] = molecular target: Histamine H3 receptor (Rattus norvegicus) (UniProt Q9QYN8); test: Activity against H3/R in the Eurofins Panlabs screen (BI) by […]; conditions: Compound concentration 10.0 uM
[34] = molecular target: Cannabinoid receptor 2 (Homo sapiens) (UniProt P34972); test: Activity against CB2/PERIPH/H in the Eurofins Cerep SafetyScreen44 (BI) by Radioactive Assay (Cerep_37); conditions: Compound concentration 10.0 uM
[35] = molecular target: LTB4 receptor (Cavia porcellus) (UniProt Q9WTK1); test: Activity against LTB4GP in the Eurofins Panlabs screen (BI) by Radioactive Assay; conditions: Compound concentration 10.0 uM
[36] = molecular target: C-X-C chemokine receptor type 2 (Homo sapiens) (UniProt P25025); test: Activity against IL-8/H in the Eurofins Panlabs screen (BI) by Radioactive Assay; conditions: Compound concentration 10.0 uM
[37] = molecular target: Endothelin-1 receptor (Homo sapiens) (UniProt P25101); test: ETA Eurofins-Cerep binding assay; parameters: ligand concentration 0.03 nM; conditions: Compound concentration 10.0 uM
[38] = molecular target: Vasopressin V1a receptor (Homo sapiens) (UniProt P37288); test: V1a Eurofins-Cerep binding assay; parameters: ligand concentration 0.3 nM; conditions: Compound concentration 10.0 uM
[39] = molecular target: Gamma-aminobutyric acid receptor subunit alpha-1 (Rattus norvegicus) (UniProt P62813); test: Activity against GABAACENTR in the Eurofins Panlabs screen (BI) by Radioactive Assay; conditions: Compound concentration 10.0 uM

residual activity [1]: 91%
residual activity [2]: 109%
residual activity [3]: 84%
residual activity [5]: 99%
residual activity [7]: 106%
residual activity [8]: 104%
residual activity [9]: 91%
residual activity [10]: 114%
residual activity [11]: 107%
residual activity [12]: 56%
residual activity [13]: 97%
residual activity [14]: 79%
residual activity [15]: 110%
residual activity [16]: 85%
residual activity [17]: 62%
residual activity [18]: 106%
residual activity [20]: 98%
residual activity [21]: 82%
residual activity [22]: 77%
residual activity [23]: 103%
residual activity [24]: 98%
residual activity [25]: 99%
residual activity [26]: 84%
residual activity [27]: 84%
residual activity [28]: 96%
residual activity [29]: 87%
residual activity [30]: 108%
residual activity [31]: 117%
residual activity [32]: 108%
residual activity [33]: 104%
residual activity [35]: 86%
residual activity [36]: 100%
residual activity [37]: 112%
residual activity [38]: 29%
residual activity [39]: 89%
SMILES: N=C(N)NCCC[C@@H](NC(=O)C(c1ccccc1)c1ccccc1)C(=O)NCc1ccc(CNC(N)=O)cc1
residual activity [4]: 60%
activity at 10 µM [6]: 82% (not active)
residual activity [19]: 93%
activity at 10 µM (hERG (KCNH2)): 79% (not active)
residual activity [34]: 91%
